Consider 31 compounds from patent US8802700B2 (Vertex Pharmaceuticals Incorporated, priority 2010, dated 2014).

In this experiment the target is T1, ΔF508-CFTR (Homo sapiens, UniProt P13569, DEL508-508).
T1 construct: expressed in transfected cells
T1 sequence (P13569 with tags, fused parts or gaps DEL508-508): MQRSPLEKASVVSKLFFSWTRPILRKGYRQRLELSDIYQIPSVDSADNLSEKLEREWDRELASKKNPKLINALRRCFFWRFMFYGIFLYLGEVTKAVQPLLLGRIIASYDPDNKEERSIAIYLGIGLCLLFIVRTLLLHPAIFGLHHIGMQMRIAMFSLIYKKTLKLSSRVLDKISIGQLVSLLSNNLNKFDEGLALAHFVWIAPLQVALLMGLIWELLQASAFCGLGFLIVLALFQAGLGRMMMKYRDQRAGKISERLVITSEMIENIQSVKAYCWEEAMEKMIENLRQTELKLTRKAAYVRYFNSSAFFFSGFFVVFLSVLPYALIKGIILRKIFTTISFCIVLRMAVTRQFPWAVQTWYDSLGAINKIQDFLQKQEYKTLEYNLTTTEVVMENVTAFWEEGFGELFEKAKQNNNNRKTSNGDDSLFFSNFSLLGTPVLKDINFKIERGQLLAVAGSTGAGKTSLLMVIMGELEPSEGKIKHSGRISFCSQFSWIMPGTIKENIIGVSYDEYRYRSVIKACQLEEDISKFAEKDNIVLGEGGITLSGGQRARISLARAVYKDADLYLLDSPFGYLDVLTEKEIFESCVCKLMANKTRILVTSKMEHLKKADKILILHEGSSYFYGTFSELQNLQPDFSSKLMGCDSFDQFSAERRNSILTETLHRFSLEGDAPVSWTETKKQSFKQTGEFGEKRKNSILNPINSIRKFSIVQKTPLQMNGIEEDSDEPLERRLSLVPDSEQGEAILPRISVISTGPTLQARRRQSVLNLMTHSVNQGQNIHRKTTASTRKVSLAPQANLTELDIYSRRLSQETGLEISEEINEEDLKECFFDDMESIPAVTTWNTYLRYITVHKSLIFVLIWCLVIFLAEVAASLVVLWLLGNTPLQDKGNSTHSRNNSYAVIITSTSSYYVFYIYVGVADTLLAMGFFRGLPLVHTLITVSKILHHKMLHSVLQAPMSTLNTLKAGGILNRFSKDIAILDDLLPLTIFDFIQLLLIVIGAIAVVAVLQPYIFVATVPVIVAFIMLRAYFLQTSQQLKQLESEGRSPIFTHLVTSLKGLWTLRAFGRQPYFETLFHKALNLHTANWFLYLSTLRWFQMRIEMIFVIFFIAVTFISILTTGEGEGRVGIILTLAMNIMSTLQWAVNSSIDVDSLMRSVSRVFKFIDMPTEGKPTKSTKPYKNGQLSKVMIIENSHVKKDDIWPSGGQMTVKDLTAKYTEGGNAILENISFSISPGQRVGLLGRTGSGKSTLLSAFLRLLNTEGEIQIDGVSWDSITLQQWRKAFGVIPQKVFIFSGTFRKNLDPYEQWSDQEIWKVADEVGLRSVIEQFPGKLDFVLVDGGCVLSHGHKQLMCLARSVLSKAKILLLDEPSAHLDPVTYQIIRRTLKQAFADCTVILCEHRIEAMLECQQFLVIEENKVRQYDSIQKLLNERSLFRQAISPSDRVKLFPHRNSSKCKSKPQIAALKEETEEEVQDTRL
The experiment in a line: Membrane potential optical assay (FRET voltage-sensor dyes, VIPR), identification of potentiator compounds. The class given is cell-based. The following applies: Table 3; assay not given; read-out: % Activity (% Efficacy, relative efficacy). Summed up:
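NIH3T3 mouse fibroblasts stably expressing ΔF508-CFTR, cultured 24 h at 27 °C, were loaded with FRET voltage dyes CC2-DMPE and DiSBAC2(3). Double-addition format: first addition of Cl⁻-free (gluconate) medium with or without compound; membrane-potential change read as fluorescence on VIPR II.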
For the compound `COC(=O)[C@@H]1CCCCN1c1ccc(NC(=O)c2c[nH]c3ccccc3c2=O)c(C(F)(F)F)c1` [Compound 715, (S)-methyl 1-(4-(4-oxo-1,4-dihydroquinoline-3-carboxamido)-3-(trifluoromethyl)phenyl)piperidine-2-carboxylate], the Emax lay in the range of 25 to 100%.
Then `O=C(Nc1ccc(Cl)cc1)c1c[nH]c2ccccc2c1=O` [Compound 405, N-(4-chlorophenyl)-4-oxo-1H-quinoline-3-carboxamide], with 25 to 100%.
In the case of `CC(C)(C)c1ccc(NC(=O)c2c[nH]c3ccccc3c2=O)cc1C#N` [Compound 13, N-(3-cyano-4-tert-butyl-phenyl)-4-oxo-1H-quinoline-3-carboxamide], the Emax fell in the range of 25 to 100%.
For `Cc1cccc2[nH]cc(C(=O)Nc3ccc(N4[C@H](C)CC[C@@H]4C)cc3C(F)(F)F)c(=O)c12` [Compound 592, N-(4-((2R,5S)-2,5-dimethylpyrrolidin-1-yl)-2-(trifluoromethyl)phenyl)-5-methyl-4-oxo-1,4-dihydroquinoline-3-carboxamide] the value was 25 to 100%; for `CCc1cc2cc[nH]c2cc1NC(=O)c1c[nH]c2ccccc2c1=O` [Compound 351, N-(5-ethyl-1H-indol-6-yl)-4-oxo-1H-quinoline-3-carboxamide], 25 to 100%; for `Cc1ccc(-c2ccccc2NC(=O)c2c[nH]c3ccccc3c2=O)o1` [Compound 311, N-[2-(5-methyl-2-furyl)phenyl]-4-oxo-1H-quinoline-3-carboxamide], 25 to 100%.
`CCOc1ccccc1-c1ccc(CN)cc1NC(=O)c1c[nH]c2ccccc2c1=O` [Compound 163, 4-Oxo-1,4-dihydro-quinoline-3-carboxylic acid (4-aminomethyl-2′-ethoxy-biphenyl-2-yl)-amide]: the Emax was in the range of 25 to 100%.
Then `O=C(Nc1ccccc1-c1ccccc1F)c1c[nH]c2ccccc2c1=O` [Compound 313, N-[2-(2-fluorophenyl)phenyl]-4-oxo-1H-quinoline-3-carboxamide], with 25 to 100%.
For the compound `CC(C)CNC(=O)c1cc2cc[nH]c2cc1NC(=O)c1c[nH]c2ccccc2c1=O` [Compound 343, N-[5-(Isobutylcarbamoyl)-1H-indol-6-yl]-4-oxo-1H-quinoline-3-carboxamide], the Emax fell in the range of 25 to 100%.
For `O=C(Nc1cc(N2CCCC2)cc(C(F)(F)F)c1)c1c[nH]c2ccccc2c1=O` [Compound 593, 4-oxo-N-[3-pyrrolidin-1-yl-5-(trifluoromethyl)phenyl]-1H-quinoline-3-carboxamide] the value was 25 to 100%; for `CC(C)(C)c1ccc(NC(=O)c2c[nH]c3ccccc3c2=O)cc1F` [Compound 645, N-(3-fluoro-4-tert-butyl-phenyl)-4-oxo-1H-quinoline-3-carboxamide], 25 to 100%; for `N#CCc1ccc(NC(=O)c2c[nH]c3ccccc3c2=O)cc1` [Compound 110, N-[4-(cyanomethyl)phenyl]-4-oxo-1H-quinoline-3-carboxamide], under 25%.
In the case of `O=C(Nc1cc(Cl)cc(NS(=O)(=O)CCN2CCCCC2)c1)c1c[nH]c2ccccc2c1=O` [Compound 133, N-[3-chloro-5-[2-(1-piperidyl)ethylsulfonylamino]phenyl]-4-oxo-1H-quinoline-3-carboxamide], the Emax fell in the range of 25 to 100%.
Then `O=C(Nc1ccc(Cl)cn1)c1c[nH]c2ccccc2c1=O` [Compound 170, N-(5-chloro-2-pyridyl)-4-oxo-1H-quinoline-3-carboxamide], with under 25%; and `O=C(Nc1ccc(C(F)(F)F)c(O)c1)c1c[nH]c2cccc(O)c2c1=O` [Compound 700, 5-hydroxy-N-[3-hydroxy-4-(trifluoromethyl)phenyl]-4-oxo-1H-quinoline-3-carboxamide], with 25 to 100%; and `O=C(Nc1ccccc1CCO)c1c[nH]c2ccccc2c1=O` [Compound 40, N-[2-(2-hydroxyethyl)phenyl]-4-oxo-1H-quinoline-3-carboxamide], with under 25%.
Then `O=C(Nc1cccnc1)c1c[nH]c2ccccc2c1=O` [Compound 168, 4-oxo-N-(3-pyridyl)-1H-quinoline-3-carboxamide], with under 25%.
For `CC(=O)n1ccc2ccc(NC(=O)c3c[nH]c4ccccc4c3=O)cc21` [Compound 187, N-(1-acetyl-1H-indol-6-yl)-4-oxo-1H-quinoline-3-carboxamide], the Emax lay within 25 to 100%.
For `O=C(Nc1ccccc1-c1ccc(Oc2ccccc2)cc1)c1c[nH]c2ccccc2c1=O` [Compound 410, 4-oxo-N-[2-(4-phenoxyphenyl)phenyl]-1H-quinoline-3-carboxamide] the value was over 100%; for `CC(C)(C)c1ccc(NC(=O)c2c[nH]c3ccccc3c2=O)cc1CN` [Compound 390, N-[3-(Aminomethyl)-4-tert-butyl-phenyl]-4-oxo-1H-quinoline-3-carboxamide], under 25%; for `N#Cc1c[nH]c2cc(NC(=O)c3c[nH]c4ccccc4c3=O)ccc12` [Compound 339, N-(3-cyano-1H-indol-6-yl)-4-oxo-1H-quinoline-3-carboxamide], 25 to 100%.
Then `O=C(Nc1ccccc1Cc1ccccc1)c1c[nH]c2ccccc2c1=O` [Compound 265, N-(2-benzylphenyl)-4-oxo-1H-quinoline-3-carboxamide], with 25 to 100%.
Then `O=C(Nc1cc2[nH]ccc2cc1F)c1c[nH]c2ccccc2c1=O` [Compound 77, N-(5-fluoro-1H-indol-6-yl)-4-oxo-1H-quinoline-3-carboxamide], with 25 to 100%.
As for `CCOc1cccc2c(=O)c(C(=O)Nc3cc(O)c(C(C)(C)C)cc3F)c[nH]c12` [Compound 526, 8-ethoxy-N-(2-fluoro-5-hydroxy-4-tert-butyl-phenyl)-4-oxo-1H-quinoline-3-carboxamide], the Emax is under 25%.
Then `O=C(Nc1ccc(C(F)(F)F)c(O)c1)c1c[nH]c2ccccc2c1=O` [Compound 506, N-[3-hydroxy-4-(trifluoromethyl)phenyl]-4-oxo-1H-quinoline-3-carboxamide], with 25 to 100%.
For `O=C(Nc1cccc(Cl)c1)c1c[nH]c2ccccc2c1=O` [Compound 370, N-(3-chlorophenyl)-4-oxo-1H-quinoline-3-carboxamide], the Emax is 25 to 100%.
Turning to `COc1ccc2c(=O)c(C(=O)Nc3ccc(N4CCC[C@@H]4C)cc3C(F)(F)F)c[nH]c2c1` [Compound 642, (S)-7-methoxy-N-(4-(2-methylpyrrolidin-1-yl)-2-(trifluoromethyl)phenyl)-4-oxo-1,4-dihydroquinoline-3-carboxamide], the Emax fell in the range of 25 to 100%.
For `Cc1ccccc1-c1ccccc1NC(=O)c1c[nH]c2ccccc2c1=O` [Compound 199, N-[2-(o-tolyl)phenyl]-4-oxo-1H-quinoline-3-carboxamide] the value was 25 to 100%; for `O=C(Nc1cc(C(=O)O)c2cc[nH]c2c1)c1c[nH]c2ccccc2c1=O` [Compound 711, 6-[(4-oxo-1H-quinolin-3-yl)carbonylamino]-1H-indole-4-carboxylic acid], 25 to 100%; for `O=C(Nc1ccncc1)c1c[nH]c2ccccc2c1=O` [Compound 53, 4-oxo-N-(4-pyridyl)-1H-quinoline-3-carboxamide], under 25%.
For the compound `Cc1cc2cc(NC(=O)c3c[nH]c4ccccc4c3=O)ccc2[nH]1` [Compound 230, N-(2-methyl-1H-indol-5-yl)-4-oxo-1H-quinoline-3-carboxamide], the Emax was 25 to 100%.
